Data on 34 compounds can be found in patent publication US8569281B2, “Compounds and their administration for treating a neurodegenerative disease as well as a method for identifying a compound capable of inhibiting a kinase, such as LRRK” (Medical Research Council Technology, priority 2010, dated 2013).

This assay concerns the target LRRK2 (Homo sapiens (Human), UniProt Q5S007). The experiment in a line: In Vitro LRRK2 Assay (LabChip 3000, fluorescently-labeled peptide substrate). Conditions: ATP 130 μM, substrate 1 μM, 2 hours, ambient temperature; LRRK2 variant not given; read-out: Ki (μM), affinity values for LRRK2. The assay is classed as biochemical. The procedure: This assay was used to determine a compound's potency in inhibiting activity of LRRK2 by determining, Kiapp, IC50, or percent inhibition values. In a polypropylene plate, LRRK2, fluorescently-labeled peptide substrate, ATP and test compound were incubated together. Using a LabChip 3000 (Caliper Life Sciences), after the reaction the substrate was separated by capillary electrophoresis into two populations: phosphorylated and unphosphorylated. The relative amounts of each were quantitated by fluorescence intensity. LRRK2 Ki was determined according to the equation: Y=V0*(1−((x+Ki*(1+S/Km)+Et)/(2*Et)−(((x+Ki*(1+S/Km)+Et)^2−(4*Et*x))^0.5)/(2*Et))).
Ki values in Table 4 and elsewhere herein are shown in μM.
Assay conditions and materials used were as follows:
Compound Plate Preparation:
For serial dilutions, 34.6 μl DMSO was added to columns 3-24.
Total and Blank Preparation:
In Complete Reaction Buffer, substrate was diluted to 4 μM. Equal volumes of Complete Reaction Buffer and 4 μM substrate were combined to obtain the blank. Equal volumes of Complete Reaction Buffer and 4 μM substrate were combined and to the combined solution was added 2× final LRRK2 concentration.
To a 50 μl polypropylene plate, 5 μl/well buffer/substrate was added by hand to Blank wells. A Biomek FX was used to start the kinase reaction (“PLK SAR 23 ATP”). The following were added to the appropriate wells: • 2 μl compound+23 μl ATP; • 5 μl/well compound/ATP in Assay Plate; • 5 μl/well kinase/substrate in Assay Plate;
The plate was incubated for 2 hours in the dark. Biomek FX was used to stop the kinase reaction (“PLK Stop”), and 10 μl/well Stop solution was added to the Assay Plate. Results were read on the LabChip 3000.
The LabChip 3000 was run using the job “LRRK2 IC50” with the following job settings: • Pressure: −1.4 psi • Downstream voltage: −500 V • Upstream voltage: −2350 V • Post sample buffer sip time: 75 seconds • Post dye buffer sip time: 75 seconds • Final delay time: 200 seconds Parkinson's Disease Animal Model

LRRK2, sequence (Q5S007 whole entry G2019S): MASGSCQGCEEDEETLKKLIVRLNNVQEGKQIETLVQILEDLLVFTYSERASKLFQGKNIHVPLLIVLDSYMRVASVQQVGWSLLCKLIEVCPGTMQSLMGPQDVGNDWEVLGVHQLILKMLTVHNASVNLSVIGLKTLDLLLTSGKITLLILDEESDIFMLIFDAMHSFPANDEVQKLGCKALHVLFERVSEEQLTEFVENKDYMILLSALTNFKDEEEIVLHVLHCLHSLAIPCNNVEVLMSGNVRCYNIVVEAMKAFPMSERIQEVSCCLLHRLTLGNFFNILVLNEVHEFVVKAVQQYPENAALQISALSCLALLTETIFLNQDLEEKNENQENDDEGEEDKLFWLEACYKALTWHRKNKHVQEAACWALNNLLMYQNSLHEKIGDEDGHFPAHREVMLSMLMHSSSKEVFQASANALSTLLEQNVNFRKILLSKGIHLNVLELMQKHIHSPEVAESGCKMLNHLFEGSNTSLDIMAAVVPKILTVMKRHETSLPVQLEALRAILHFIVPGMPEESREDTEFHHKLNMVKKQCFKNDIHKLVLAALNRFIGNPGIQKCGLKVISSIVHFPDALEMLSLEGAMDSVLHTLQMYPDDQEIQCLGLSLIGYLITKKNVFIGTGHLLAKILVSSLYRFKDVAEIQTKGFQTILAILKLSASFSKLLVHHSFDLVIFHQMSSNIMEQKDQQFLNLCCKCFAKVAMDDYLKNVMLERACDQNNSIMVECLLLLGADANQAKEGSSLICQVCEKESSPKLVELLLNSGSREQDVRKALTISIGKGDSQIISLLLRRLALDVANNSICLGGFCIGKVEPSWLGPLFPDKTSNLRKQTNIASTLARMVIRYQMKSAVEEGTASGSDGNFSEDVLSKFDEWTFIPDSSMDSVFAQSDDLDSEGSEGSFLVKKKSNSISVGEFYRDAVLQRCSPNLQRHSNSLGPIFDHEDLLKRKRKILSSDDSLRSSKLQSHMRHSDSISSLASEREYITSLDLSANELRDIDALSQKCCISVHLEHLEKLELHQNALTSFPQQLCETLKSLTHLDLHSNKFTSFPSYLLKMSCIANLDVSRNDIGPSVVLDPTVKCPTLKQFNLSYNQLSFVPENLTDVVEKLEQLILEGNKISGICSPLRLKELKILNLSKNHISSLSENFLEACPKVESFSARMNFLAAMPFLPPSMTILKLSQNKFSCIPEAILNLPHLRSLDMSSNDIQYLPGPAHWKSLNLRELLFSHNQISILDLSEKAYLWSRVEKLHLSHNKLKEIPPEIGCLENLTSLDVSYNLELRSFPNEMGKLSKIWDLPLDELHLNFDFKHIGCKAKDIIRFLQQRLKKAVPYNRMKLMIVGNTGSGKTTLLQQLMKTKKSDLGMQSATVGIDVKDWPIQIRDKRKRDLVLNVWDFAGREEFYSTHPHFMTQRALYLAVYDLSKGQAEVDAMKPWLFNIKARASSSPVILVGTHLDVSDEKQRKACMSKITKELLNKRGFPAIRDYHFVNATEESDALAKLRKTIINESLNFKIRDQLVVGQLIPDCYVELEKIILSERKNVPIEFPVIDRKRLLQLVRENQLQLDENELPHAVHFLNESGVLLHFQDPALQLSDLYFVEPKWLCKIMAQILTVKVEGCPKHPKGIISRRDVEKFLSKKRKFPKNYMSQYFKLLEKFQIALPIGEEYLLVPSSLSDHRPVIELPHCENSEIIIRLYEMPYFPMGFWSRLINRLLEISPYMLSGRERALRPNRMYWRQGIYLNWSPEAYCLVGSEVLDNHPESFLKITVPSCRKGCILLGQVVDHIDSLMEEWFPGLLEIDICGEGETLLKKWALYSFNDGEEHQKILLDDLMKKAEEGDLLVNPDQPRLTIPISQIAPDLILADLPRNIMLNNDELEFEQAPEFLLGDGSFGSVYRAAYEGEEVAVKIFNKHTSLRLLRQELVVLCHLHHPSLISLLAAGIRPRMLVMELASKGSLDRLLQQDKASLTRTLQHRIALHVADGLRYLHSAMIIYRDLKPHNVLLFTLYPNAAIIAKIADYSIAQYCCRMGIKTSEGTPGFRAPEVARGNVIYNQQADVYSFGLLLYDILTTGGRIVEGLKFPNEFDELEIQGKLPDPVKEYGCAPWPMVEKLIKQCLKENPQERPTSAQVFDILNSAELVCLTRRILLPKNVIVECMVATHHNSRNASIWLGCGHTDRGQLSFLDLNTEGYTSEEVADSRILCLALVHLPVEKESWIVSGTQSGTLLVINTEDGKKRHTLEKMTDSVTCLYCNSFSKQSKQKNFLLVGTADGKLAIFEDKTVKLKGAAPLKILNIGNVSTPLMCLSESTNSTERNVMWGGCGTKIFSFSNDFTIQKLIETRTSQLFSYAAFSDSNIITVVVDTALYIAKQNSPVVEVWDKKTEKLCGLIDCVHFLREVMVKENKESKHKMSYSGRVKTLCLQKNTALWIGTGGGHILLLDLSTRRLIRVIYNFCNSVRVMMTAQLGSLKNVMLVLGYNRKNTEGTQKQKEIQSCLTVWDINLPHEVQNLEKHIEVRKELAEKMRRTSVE

Consider `N#CCc1cccc(-c2[nH]nc3ccnc(OC4CCOCC4)c23)c1` [Example 151, 2-(3-(4-(Tetrahydro-2H-pyran-4-yloxy)-1H-pyrazolo[4,3-c]pyridin-3-yl)phenyl)acetonitrile], for which the Ki stood at 0.017 µM.

Turning to `CN(C)c1cccc(-c2[nH]nc3ccnc(OC4CCOCC4)c23)c1` [Example 153, N,N-Dimethyl-3-(4-(tetrahydro-2H-pyran-4-yloxy)-1H-pyrazolo[4,3-c]pyridin-3-yl)aniline], the Ki amounted to 0.05 µM.

Turning to `CC(C)NC(=O)c1cccc(-c2[nH]nc3ccnc(OC4CCOCC4)c23)c1` [Example 154, N-Isopropyl-3-(4-(tetrahydro-2H-pyran-4-yloxy)-1H-pyrazolo[4,3-c]pyridin-3-yl)benzamide], the Ki was 0.0784 µM.

In the case of `O=C(NC1CC1)c1cccc(-c2[nH]nc3ccnc(OC4CCOCC4)c23)c1` [Example 155, N-Cyclopropyl-3-(4-(tetrahydro-2H-pyran-4-yloxy)-1H-pyrazolo[4,3-c]pyridin-3-yl)benzamide], the Ki was found to be 0.027 µM.

In the case of `N#Cc1cncc(-c2n[nH]c3ccnc(OC4CCOCC4)c23)c1` [Example 156], the Ki was 0.172 µM.

With `CN1CCc2c(-c3n[nH]c4ccnc(OC5CCOCC5)c34)cccc21` [Example 157, 3-(1-Methylindolin-4-yl)-4-(tetrahydro-2H-pyran-4-yloxy)-1H-pyrazolo[4,3-c]pyridine], the Ki was 0.495 µM.

For `c1cc(-c2n[nH]c3ccnc(OC4CCOCC4)c23)c2cc[nH]c2c1` [Example 158, 3-(1H-Indol-4-yl)-4-(tetrahydro-2H-pyran-4-yloxy)-1H-pyrazolo[4,3-c]pyridine], the Ki came to 0.448 µM.

With `CNC(=O)c1cccc(-c2n[nH]c3ccnc(OC4CCOCC4)c23)c1` [Example 160, N-Methyl-3-(4-(tetrahydro-2H-pyran-4-yloxy)-1H-pyrazolo[4,3-c]pyridin-3-yl)benzamide], the Ki was found to be 0.025 µM.

As to `c1cc(CN2CCOCC2)cc(-c2[nH]nc3ccnc(OC4CCOCC4)c23)c1` [Example 161, 4-(3-(4-(Tetrahydro-2H-pyran-4-yloxy)-1H-pyrazolo[4,3-c]pyridin-3-yl)benzyl)morpholine], the Ki amounted to 0.107 µM.

`COc1cc(Nc2[nH]nc3ccnc(OC4CCOCC4)c23)ccn1` [Example 162, N-(2-methoxypyridin-4-yl)-4-(tetrahydro-2H-pyran-4-yloxy)-1H-pyrazolo[4,3-c]pyridin-3-amine]: the Ki was found to be 0.04 µM.

Regarding `c1cc(Nc2[nH]nc3ccnc(OC4CCOCC4)c23)ccn1` [Example 163, N-(Pyridin-4-yl)-4-(tetrahydro-2H-pyran-4-yloxy)-1H-pyrazolo[4,3-c]pyridin-3-amine], the Ki amounted to 0.165 µM.

On to `CC(C)n1cc(Nc2[nH]nc3ccnc(OC4CCOCC4)c23)cn1` [Example 164, N-(1-Isopropyl-1H-pyrazol-4-yl)-4-(tetrahydro-2H-pyran-4-yloxy)-1H-pyrazolo[4,3-c]pyridin-3-amine], for which the Ki came to 0.03 µM.

Regarding `CS(=O)(=O)c1cccc(-c2[nH]nc3ccnc(OC4CCOCC4)c23)c1` [Example 165, 3-(3-(Methylsulfonyl)phenyl)-4-(tetrahydro-2H-pyran-4-yloxy)-1H-pyrazolo[4,3-c]pyridine], the Ki came to 0.029 µM.

Regarding `COc1nccc2n[nH]c(-c3cccc(S(C)(=O)=O)c3)c12` [Example 167, 4-Methoxy-3-(3-(methylsulfonyl)phenyl)-1H-pyrazolo[4,3-c]pyridine], the inhibitory constant (Ki) is 0.045 µM.

As to `CC(C)c1nc(-c2n[nH]c3ccnc(NC4CCOCC4)c23)n[nH]1` [Example 168, 3-(5-Isopropyl-4H-1,2,4-triazol-3-yl)-N-(tetrahydro-2H-pyran-4-yl)-1H-pyrazolo[4,3-c]pyridin-4-amine], the Ki was found to be 0.007 µM.

Consider `CNC(=O)c1cccc(-c2[nH]nc3cc(C)nc(OC4CCOCC4)c23)c1` [Example 171, N-methyl-3-(6-methyl-4-(tetrahydro-2H-pyran-4-yloxy)-1H-pyrazolo[4,3-c]pyridin-3-yl)benzamide], for which the Ki is 0.154 µM.

Regarding `Cc1cc2[nH]nc(-c3ccnc(N4CCOCC4)c3)c2c(OC2CCOCC2)n1` [Example 172, 4-(4-(6-methyl-4-(tetrahydro-2H-pyran-4-yloxy)-1H-pyrazolo[4,3-c]pyridin-3-yl)pyridin-2-yl)morpholine], the Ki was 0.035 µM.

On to `COc1nccc2n[nH]c(-c3ccc(S(C)(=O)=O)cc3)c12` [Example 173, 4-methoxy-3-(4-(methylsulfonyl)phenyl)-1H-pyrazolo[4,3-c] pyridine], for which the Ki stood at 0.09 µM.

On to `N#Cc1cc(-c2n[nH]c3ccnc(OC4CCOCC4)c23)ccn1` [Example 174, 4-(4-(tetrahydro-2H-pyran-4-yloxy)-1H-pyrazolo[4,3-c]pyridin-3-yl)picolinonitrile], for which the inhibitory constant (Ki) was 0.13 µM.

Consider `CC(Oc1nccc2[nH]nc(-c3ccnc(N4CCOCC4)c3)c12)C(F)(F)F` (stereo not shown) [Example 177, 4-(4-(4-(1,1,1-trifluoropropan-2-yloxy)-1H-pyrazolo[4,3-c]pyridin-3-yl)pyridin-2-yl)morpholine], for which the Ki came out at 0.016 µM.

For the compound `COCCOc1nccc2[nH]nc(-c3ccnc(N4CCOCC4)c3)c12` [Example 178, 4-(4-(4-(2-methoxyethoxy)-1H-pyrazolo[4,3-c]pyridin-3-yl)pyridin-2-yl) morpholine], the Ki was found to be 0.023 µM.

For the compound `O=C1OCCN1CCOc1nccc2[nH]nc(-c3ccnc(N4CCOCC4)c3)c12` [Example 179, 3-(2-(3-(2-morpholinopyridin-4-yl)-1H-pyrazolo[4,3-c]pyridin-4-yloxy)ethyl)oxazolidin-2-one], the Ki worked out at 0.354 µM.

On to `CC(C)n1cc(-c2n[nH]c3ccnc(OCCN4CCOC4=O)c23)cn1` [Example 182, 3-(2-(3-(1-isopropyl-1H-pyrazol-4-yl)-1H-pyrazolo[4,3-c]pyridin-4-yloxy)ethyl)oxazolidin-2-one], for which the Ki turned out to be 0.323 µM.

Take `COc1nccc2[nH]nc(-c3cnn(C4CCOCC4)c3)c12` [Example 184, 4-methoxy-3-(1-(tetrahydro-2H-pyran-4-yl)-1H-pyrazol-4-yl)-1H-pyrazolo[4,3-c]pyridine]: the Ki turned out to be 0.033 µM.

In the case of `COC(=O)c1[nH]nc2ccnc(NC3CCOCC3)c12` [Example 185, methyl 4-(tetrahydro-2H-pyran-4-ylamino)-1H-pyrazolo[4,3-c]pyridine-3-carboxylate], the Ki was found to be 0.1 µM.

As for `c1cc2[nH]nc(-c3cnn(C4CCOCC4)c3)c2c(OC2CCOCC2)n1` [Example 186, 3-(1-(tetrahydro-2H-pyran-4-yl)-1H-pyrazol-4-yl)-4-(tetrahydro-2H-pyran-4-yloxy)-1H-pyrazolo[4,3-c]pyridine], the Ki was 0.013 µM.

For the compound `Cc1n[nH]c2ccnc(NC3CCOCC3)c12` [Example 188, 3-methyl-N-(tetrahydro-2H-pyran-4-yl)-1H-pyrazolo[4,3-c]pyridin-4-amine], the Ki was found to be 0.13 µM.

Turning to `c1cc(-c2n[nH]c3ccnc(OC4CCOC4)c23)cc(N2CCOCC2)n1` (stereo not shown) [Example 190, 4-(4-(4-(tetrahydrofuran-3-yloxy)-1H-pyrazolo[4,3-c]pyridin-3-yl)pyridin-2-yl)morpholine], the Ki worked out at 0.013 µM.

With `Cc1n[nH]c2ccnc(OC3CCCC3)c12` [Example 196, 4-(cyclopentyloxy)-3-methyl-1H-pyrazolo[4,3-c]pyridine], the Ki is 0.858 µM.

On to `c1cncc(-c2cc(-c3n[nH]c4ccnc(OC5CCOCC5)c34)ccn2)c1` [Example 197, 3-(2,3′-bipyridin-4-yl)-4-(tetrahydro-2H-pyran-4-yloxy)-1H-pyrazolo[4,3-c]pyridine], for which the Ki came to 0.021 µM.

Take `c1cc(-c2cc(-c3n[nH]c4ccnc(OC5CCOCC5)c34)ccn2)ccn1` [Example 198, 3-(2,4′-bipyridin-4-yl)-4-(tetrahydro-2H-pyran-4-yloxy)-1H-pyrazolo[4,3-c]pyridine]: the Ki was determined as 0.026 µM.

Regarding `c1ncc(-c2cc(-c3n[nH]c4ccnc(OC5CCOCC5)c34)ccn2)cn1` [Example 199, 3-(2-(pyrimidin-5-yl)pyridin-4-yl)-4-(tetrahydro-2H-pyran-4-yloxy)-1H-pyrazolo[4,3-c]pyridine], the Ki was found to be 0.046 µM.

As for `N#Cc1cccc(-c2cc(-c3n[nH]c4ccnc(OC5CCOCC5)c34)ccn2)c1` [Example 201, 3-(4-(4-(tetrahydro-2H-pyran-4-yloxy)-1H-pyrazolo[4,3-c]pyridin-3-yl)pyridin-2-yl) benzonitrile], the Ki is 0.009 µM.

For `N#Cc1ccc(-c2cc(-c3n[nH]c4ccnc(OC5CCOCC5)c34)ccn2)cc1` [Example 202, 4-(4-(4-(tetrahydro-2H-pyran-4-yloxy)-1H-pyrazolo[4,3-c]pyridin-3-yl)pyridin-2-yl) benzonitrile], the Ki was 0.025 µM.
